Counter-ions that a name gives are not always drawn.
Tests used:
[1] = system: DEN+CCl4-induced liver fibrosis; assay: Mouse model of CCl4+Diethylnitrosamine (DEN)-induced liver injury; format: in vivo, C57Bl6/J mice; conditions: for DEN+CCl4-induced collagen deposition (Massons Trichrome and Sirius red staining): Minnelide 0.2 mg/kg, compared to the vehicle
Experimental: Mouse model of CCl4+Diethylnitrosamine (DEN)-induced liver injury. C57Bl6/J mice (3 weeks of age; ˜15 g) received one single dose of DEN (25 mg/kg). From 8 weeks of age; (˜25 g) they receive twice a week during 4 weeks 250 μL i.p. of either olive oil or CCl4 at a dose of 0.2 ml/kg diluted in olive oil. Animals were treated with 0.2 mg/kg Minnelide after 4 weeks of CCl4.
(§1) For both models, injury and fibrosis were determined by examination of histological specimens by H&E staining as well as picrosirius red staining.

[2] = system: CCl4-induced liver fibrosis; assay: Mouse model of carbon tetrachloride (CCl4) liver fibrosis; format: in vivo, C57Bl6/J mice
Experimental: Two animal models were used: Mouse model of Carbon tetrachloride (CCl4). In this model, C57Bl6/J mice (8 weeks of age; ˜25 g) received twice a week during 4 weeks 250 μL i.p. of either olive oil or CCl4 at a dose of 3.5 ml/kg diluted in olive oil. Animals were treated with 0.2 mg/kg Minnelide after 4 weeks of CCl4.
as §1

DIO-NASH mouse model = assay: Diet-induced obese (DIO) mouse model of non-alcoholic steatohepatitis (NASH); format: in vivo, C57BL/6JRj mice; conditions: Minnelide 0.1 mg/kg PO QD, 8 weeks; compared to vehicle treated control DIO-NASH mice
Description: To investigate the effect of 8 weeks of treatment with Minnelide alone and in combination with Elafibranor or Liraglutide in DIO-NASH mouse model, metabolic parameters, hepatic pathology and NAFLD Activity Score (NAS) including Fibrosis Stage data were collected.
Male […] mice were obtained from Janvier Labs (Le Genest Saint Isle, France). Mice had ad libitum access to tap water and either regular rodent chow (Altromin 1324, Brogaarden, Hoersholm, Denmark), or a diet high in fat (40%, containing 18% trans-fat), 40% carbohydrates (20% fructose) and 2% cholesterol (AMLN diet; D09100301, Research Diets, New Brunswick, N.J.). C57BL/6JRj mice were fed regular chow as lean chow vehicle control group or AMLN diet as DIO-NASH mice for 35 weeks prior to treatment start.
All animals included in the drug treatment experiments underwent liver biopsy for baseline characterization of hepatic parameters and stratified randomization into treatment groups. Mice are anesthetized by inhalation anesthesia using isoflurane (2-3%). […] A stratified randomization into treatment groups is performed according to liver Collagen 1a1 quantification. […]
Biochemical and histological analyses were performed as reported previously (Tølbøl, et al. World J Gastroenterol. Jan. 14, 2018; 24(2): 179-194). […] Liver homogenates were analyzed for TG and TC. […]

[3] = therapeutic intervention, DEN+CCl4 induced liver fibrosis
[4] = therapeutic intervention, CCl4 induced liver fibrosis

CC(C)[C@]12O[C@H]1[C@@H]1O[C@]13[C@]1(O[C@H]1C[C@H]1C4=C(CC[C@@]13C)C(=O)OC4)[C@@H]2OCOP(=O)(O)O [Minnelide, 14-O-phosphonooxymethyltriptolide disodium salt]
expression of Tnf-α, IL6, IL-1β and iNOS (inflammation associated genes) ([1]; 8 week time point): decreased
expression of inflammasome genes (NLRP3, apoptosis-associated speck-like protein containing a CARD, caspase1, IL-1β, IL18) ([1]; 8 week time point): decreased
steatosis, ballooning, and inflammatory foci (liver H&E staining) ([1]; 12 week time point): reduced
steatosis, ballooning, and inflammatory foci (liver H&E staining) ([1]; DEN+CCl4 administration, 8 week time point): reduced
α-SMA expression (immunofluorescence staining) ([1]; DEN+CCl4 model): reduced
DEN+CCl4-induced collagen deposition (Massons Trichrome and Sirius red staining) [1]: inhibited
DEN+CCl4-induced collagen deposition (Massons Trichrome and Sirius red staining) ([1]; 12 week time point paragraph): inhibited
fibrosis [1, 3]: reduction
plasma biochemical markers [1, 3]: reduction
steatosis, ballooning, and inflammatory foci (liver H&E staining) ([2]; CCl4 administration, 8 week time point): reduced
α-SMA expression (immunofluorescence staining) ([2]; CCl4 model): reduced
CCl4-induced collagen deposition (Massons Trichrome and Sirius red staining) ([2]; Minnelide 0.2 mg/kg, compared to the vehicle): inhibited
fibrosis [2, 4]: reduction
plasma biochemical markers [2, 4]: reduction
reduction in liver Galectin-3 (% fractional area) (DIO-NASH mouse model): 18.41%
